Data on five compounds can be found in patent US6716854B2, “Treatments for restless legs syndrome” (Pfizer, Inc., priority 2000, dated 2004).

The structures appear in SMILES notation. Structures can show the parent of a compound that is named as a salt.

One data set deals with RLS patients. The note with it: cited from earlier work.
Another data set has as its system people with RLS. The note with it: recent studies quoted from RLS Internet site; cited from earlier work.
For data set [1] the following is noted: in vivo; cited from earlier work.

One may read the melting point as the temperature, or range, at which the solid turns liquid. A word on the half-life: it is how long it takes for the measured level to halve.

Take `N[C@@H](Cc1ccc(O)c(O)c1)C(=O)O` [L-dopa]: the “suppression of RLS” value in the data set with RLS patients (L-dopa 100 mg with carbidopa 10 mg, in most cases, rebound of PLMS in last part of night) is recorded as “completely suppresses RLS”. The “effect on RLS at bedtime and PLMS throughout the night” value in the data set on RLS patients (administered twice at night, PSG recordings, double-blind) is “significant reduction”.
With `CCCN1C[C@H](CSC)C[C@@H]2c3cccc4[nH]cc(c34)C[C@H]21` [Permax®, pergolide mesylate], in the data set with people with RLS, the “effectiveness in treating RLS relative to Sinemet” value is given as “as effective as Sinemet®” and the “potential for causing augmentation” value was 10%.
The compound `CN[C@@H]1Cc2cccc3[nH]c(=S)n(c23)C1.O=C(O)/C=C\C(=O)O` came in with a melting point of 195 to 196 °C.
On to `CCCN1C[C@H](CSC)C[C@@H]2c3cccc4[nH]cc(c34)C[C@H]21` [Pergolide], for which, in data set [1], the half-life was 7 to 16 h.
Compound `CN[C@@H]1Cc2cccc3[nH]c(=S)n(c23)C1` displayed a melting point of 210 to 213 °C.
